Laboratory results published in patent publication US4657897A, “N^6 -substituted adenosines for treating pain” (Warner-Lambert Company, priority 1985, dated 1987).
Like-named read-outs stand apart in the source and are kept apart here.

Columns and labels:
[1] = target: T1, adenosine A1 receptor (Rattus norvegicus, UniProt P25099); assay: Adenosine Receptor Binding--A1 Receptor Affinity (RBA1), [3H]-CHA binding, rat whole brain membranes; parameters: species or system rat (male Long Evans); conditions: 1.0 nM [3H]-CHA, 25° C., 1 h
T1 construct: Whole brain minus cerebellum and brainstem from male Long Evans rats; from tissue; host or cells: rat whole brain minus cerebellum and brainstem (male Long Evans), membranes
T1 sequence (P25099 1-326): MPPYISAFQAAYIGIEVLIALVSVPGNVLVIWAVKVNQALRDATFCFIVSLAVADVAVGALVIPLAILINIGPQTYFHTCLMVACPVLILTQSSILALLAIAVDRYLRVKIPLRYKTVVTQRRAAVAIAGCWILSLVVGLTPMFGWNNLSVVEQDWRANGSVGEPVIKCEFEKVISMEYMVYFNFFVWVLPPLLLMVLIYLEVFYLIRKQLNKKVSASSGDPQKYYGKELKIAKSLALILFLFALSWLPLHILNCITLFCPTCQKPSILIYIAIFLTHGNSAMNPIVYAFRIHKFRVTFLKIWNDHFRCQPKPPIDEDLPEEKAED
Procedure: Adenosine Receptor Binding--A1 Receptor Affinity (RBA1)
Whole brain minus cerebellum and brainstem from male Long Evans rats (150-200 g) was homogenized in 30 volumes of ice-cold 0.05M Tris-HCl buffer pH 7.7 using a Brinkman Polytron PT-10, (setting number 6 for 20 seconds) and centrifuged for ten minutes at 20,000×g (Sorvall RC-2), 4° C. The supernatant was discarded, and the pellet was resuspended and centrifuged as before. The pellet was resuspended in 20 ml Tris-HCl buffer containing two International Units/ml of adenosine deaminase (Sigma type III from calf intestinal mucosa), incubated at 37° C. for 30 minutes, then subsequently at 0° C. for ten minutes. The homogenate was again centrifuged, and the final pellet was resuspended in ice-cold 0.05M Tris-HCl buffer pH 7.7 to a concentration of 20 mg/ml original wet tissue weight and used immediately.
Tissue homogenate (10 mg/ml) was incubated in 0.05M Tris-HCl buffer pH 7.7 containing 1.0 nM [^3 H]-N^6 -cyclohexyladenosine[^3 H]-CHA) with or without test agents in triplicate for one hour at 25° C. Incubation volume was 2 ml. Unbound [^3 H]-CHA was separated by rapid filtration under reduced pressure through Whatman glass fiber (GF/B) filters. The filters were rinsed three times with 5 ml of ice cold 0.05M Tris-HCl buffer pH 7.7. The radio-labeled ligand retained on the filter was measured by liquid scintillation spectrophotometry after shaking the filters for one hour or longer on a mechanical shaker in 10 ml of Beckman Ready-Solv HP scintillation cocktail.
Nonspecific binding was defined as the binding which occurred in the presence of 1 mM theophylline. The concentration of test agent which inhibited 50% of the specific binding (IC50) was determined by nonlinear computer curve fit. The Scatchard plot was calculated by linear regression of the line obtained by plotting the amount of radioligand bound (pmoles/gram of tissue) [formula] Since the amount of radioligand bound was a small fraction of the total amount added, free radioligand was defined as the concentration (nM) of radioligand added to the incubation mixture. The Hill coefficient was calculated by linear regression of the line obtained by plotting the log of the bound radioligand vs the log of the [formula] The maximal number of binding sites (Bmax) was calculated from the Scatchard plot.

[2] = Mouse Activity and Screen Test (MAST), screen test failure (ST); format: in vivo, mouse (Swiss-Webster, male); conditions: for Inhibition of screen test failure: percent of mice falling off the screen; for minimal effective dose: Mus musculus, ip, read-out: MAST ST LAD
Procedure: Treatments are administered intraperitoneally one hour prior to testing. […] Compounds are dissolved or suspended in 0.2% Methocel. Control animals are injected with Methocel.
The compounds are identified in the Examples.

[3] = target: T2, adenosine A2 receptor (Rattus norvegicus, UniProt P30543); assay: Adenosine Receptor Binding--A2 Receptor Affinity (RBA2), [3H]NECA binding, rat striatal membranes; parameters: species or system rat (mixed sex Sprague-Dawley; male Long-Evans); conditions: 4 nM [3H]NECA, 50 nM N6-cyclopentyladenosine, 25° C., 60 min
T2 construct: 5 mg original tissue weight of rat weight of rat striatal membranes; tissue Pel-Freez (Rogers, Ark.) for the brains; host or cells: rat striatum (Sprague-Dawley; Long-Evans gave essentially identical results), membranes
T2 sequence (P30543 whole entry): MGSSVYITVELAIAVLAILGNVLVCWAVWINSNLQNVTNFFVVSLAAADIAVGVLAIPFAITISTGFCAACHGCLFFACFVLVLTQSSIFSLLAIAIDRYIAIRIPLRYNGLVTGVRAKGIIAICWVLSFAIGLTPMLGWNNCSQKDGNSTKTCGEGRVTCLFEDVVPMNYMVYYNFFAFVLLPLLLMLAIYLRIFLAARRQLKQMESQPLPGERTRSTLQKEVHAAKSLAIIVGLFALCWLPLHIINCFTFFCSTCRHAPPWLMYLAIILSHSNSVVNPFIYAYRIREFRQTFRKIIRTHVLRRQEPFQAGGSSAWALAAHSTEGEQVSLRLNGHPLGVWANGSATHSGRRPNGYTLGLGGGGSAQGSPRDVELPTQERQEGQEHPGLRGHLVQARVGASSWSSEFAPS
Procedure: Adenosine Receptor Binding--A2 Receptor Affinity (RBA2)
Brains from 200-500 g mixed sex Sprague-Dawley rats were purchased from Pel-Freez (Rogers, Ark.). […] Brains were thawed and then kept on ice while the striata were dissected out. Striata were disrupted in 10 vol of ice-cold 50 mM Tris.HCl (pH 7.7 at 25° C., pH 8.26 at 5° C.) (Tris) for 30 seconds in a Polytron PT-10 (Brinkmann) at setting 5. The suspension was centrifuged at 50,000 xg for ten minutes, the supernatant discarded, the pellet resuspended in 10 vol ice-cold Tris as above, recentrifuged, resuspended at 1 g/5 ml, and stored in plastic vials at -70° C. […] When needed, tissue was thawed at room temperature, disrupted in a Polytron, and kept on ice until used.
Test compounds were dissolved at 10 mM in dimethylsulfoxide on the same day as the experiment, and diluted in dimethylsulfoxide to 100× the final incubation concentration. […] [^3 H]NECA was diluted to 40 nM in Tris. […] After all additions, the rack of tubes was vortexed, and the tubes were then incubated for 60 min at 25° C. in a shaking water bath. The rack of tubes was vortexed an additional time halfway through the incubation.
Incubations were terminated by filtration through 2.4 cm GF/B filters under reduced pressure. Each tube was filtered as follows: the contents of the tube were poured onto the filter, 4 ml of ice-cold Tris were added to the tube and the contents poured onto the filter, and the filter was washed twice with 4 ml of ice-cold Tris. The filtration was complete in about twelve seconds. Filters were put in scintillation vials, 8 ml of Formula 947 scintillation fluid added, and the vials left overnight, shaken, and counted in a liquid scintillation counter at 40% efficiency.
The IC50 was calculated by weighted nonlinear least squares curve-fitting to the mass-action equation. [formula] where Y is cpm bound
T is cpm total binding without drug
S is cpm specific binding without drug
D is the concentration of drug
K is the IC50 of the drug
Weighting factors were calculated under the assumption that the standard deviation was proportional to the predicted value of Y. Nonspecific binding was treated as a very large (infinite) concentration of drug in the computer analysis.

[4] = lowest dose at which an A rating is achieved, screen test, intraperitoneal, 1 h prior to testing

With OC[C@H]1O[C@@H](n2cnc3c(NCC(c4ccccc4)c4ccccc4)nc(Cl)nc32)[C@H](O)[C@@H]1O [Example 3, N^6-(2,2-Diphenylethyl)-2-chloroadenosine] the IC50 [1] was 67 nM, the “Inhibition of screen test failure” value ([2]; 10 mg/kg intraperitoneal) was 0% and the “Inhibition of screen test failure” value ([2]; 30 mg/kg intraperitoneal) was 11%. For the same molecule, the “Inhibition of screen test failure” value ([2]; 100 mg/kg intraperitoneal) was 44%, the minimal effective dose [2, 4] was greater than 100 mg/kg and the IC50 [3] was 139 nM.
For Nc1nc(NCC(c2ccccc2)c2ccccc2)c2ncn([C@@H]3O[C@H](CO)[C@@H](O)[C@H]3O)c2n1 [Example 4, N^6-(2,2-Diphenylethyl)-2-aminoadenosine], the IC50 [1] was 89 nM, the “Inhibition of screen test failure” value ([2]; 10 mg/kg intraperitoneal) was 0% and the “Inhibition of screen test failure” value ([2]; 30 mg/kg intraperitoneal) was 11%. For the same molecule, the “Inhibition of screen test failure” value ([2]; 100 mg/kg intraperitoneal) was 22%, the minimal effective dose [2, 4] was greater than 100 mg/kg and the IC50 [3] was 275 nM.
OC[C@H]1O[C@@H](n2cnc3c(NC(c4ccccc4)c4ccccc4)ncnc32)[C@H](O)[C@@H]1O [Example 5, N^6 -Diphenylmethyladenosine] gave an IC50 [1] of 846 nM, a minimal effective dose [2, 4] greater than 100 mg/kg and an IC50 [3] of 5650 nM.
Molecule OC[C@H]1O[C@@H](n2cnc3c(NCCCC(c4ccccc4)c4ccccc4)ncnc32)[C@H](O)[C@@H]1O [Example 6, N^6-(4,4-Diphenylbutyl)adenosine] has an IC50 [1] of 518 nM, a minimal effective dose [2, 4] greater than 100 mg/kg and an IC50 [3] of 9520 nM.
With OC[C@H]1O[C@@H](n2cnc3c(NCCCCC(c4ccccc4)c4ccccc4)ncnc32)[C@H](O)[C@@H]1O [Example 7, N^6-(5,5-Diphenylpentyl)adenosine] the IC50 [1] was 147 nM, the minimal effective dose [2, 4] was greater than 100 mg/kg and the IC50 [3] was 3290 nM.
CC(CNc1ncnc2c1ncn2[C@@H]1O[C@H](CO)[C@@H](O)[C@H]1O)(c1ccccc1)c1ccccc1 [Example 8, N^6-(2,2-Diphenylpropyl)adenosine] gave an IC50 [1] of 66 nM, a minimal effective dose [2, 4] greater than 100 mg/kg and an IC50 [3] of 41 nM.
For Cc1cccc(C(CNc2ncnc3c2ncn3[C@@H]2O[C@H](CO)[C@@H](O)[C@H]2O)c2ccccc2)c1 (stereo partly drawn) [Example 9, N^6-(2-(3-Methylphenyl)-2-phenylethyl)adenosine], the IC50 [1] was 13 nM, the minimal effective dose [2, 4] was 100 mg/kg and the IC50 [3] was 17 nM.
For OC[C@H]1O[C@@H](n2cnc3c(NCC(c4ccccc4)c4ccc(F)cc4)ncnc32)[C@H](O)[C@@H]1O (stereo partly drawn) [Example 10, N^6-(2-(4-Fluorophenyl)-2-phenylethyl)adenosine], the IC50 [1] was 14 nM, the minimal effective dose [2, 4] was greater than 100 mg/kg and the IC50 [3] was 71 nM.
OC[C@H]1O[C@@H](n2cnc3c(NCC(c4ccccc4)c4ccc(F)cc4)nc(Cl)nc32)[C@H](O)[C@@H]1O (stereo partly drawn) [Example 11, N^6-(2-(4-Fluorophenyl)-2-phenylethyl)-2-chloroadenosine] showed an IC50 [1] of 69 nM, a minimal effective dose [2, 4] greater than 100 mg/kg and an IC50 [3] of 210 nM.
Nc1nc(NCC(c2ccccc2)c2ccc(F)cc2)c2ncn([C@@H]3O[C@H](CO)[C@@H](O)[C@H]3O)c2n1 (stereo partly drawn) [Example 12, N^6-(2-(4-Fluorophenyl)-2-phenylethyl)-2-amino adenosine] showed an IC50 [1] of 94 nM, a minimal effective dose [2, 4] greater than 100 mg/kg and an IC50 [3] of 303 nM.
With OC[C@H]1O[C@@H](n2cnc3c(NCC(c4ccc(F)cc4)c4ccc(F)cc4)ncnc32)[C@H](O)[C@@H]1O [Example 13, N^6-(2,2-Di-(4-fluorophenyl)ethyl)adenosine] the IC50 [1] was 16 nM, the minimal effective dose [2, 4] was greater than 100 mg/kg and the IC50 [3] was 94 nM.
In the case of OC[C@H]1O[C@@H](n2cnc3c(NCC(c4ccccc4)c4cccc(Cl)c4)ncnc32)[C@H](O)[C@@H]1O (stereo partly drawn) [Example 14, N^6-(2-(3-Chlorophenyl)-2-phenylethyl)adenosine], the minimal effective dose [2, 4] is reported as greater than 100 mg/kg.
Molecule OC[C@H]1O[C@@H](n2cnc3c(NCC(c4ccccc4)c4ccc(Cl)cc4)ncnc32)[C@H](O)[C@@H]1O (stereo partly drawn) [Example 15, N^6-(2-(4-Chlorophenyl)-2-phenylethyl)adenosine] has an IC50 [1] of 27 nM, a minimal effective dose [2, 4] greater than 100 mg/kg and an IC50 [3] of 90 nM.
Work on Nc1nc(NCC(c2ccccc2)c2ccc(Cl)cc2)c2ncn([C@@H]3O[C@H](CO)[C@@H](O)[C@H]3O)c2n1 (stereo partly drawn) [Example 16] yielded an IC50 [1] of 223 nM, a minimal effective dose [2, 4] greater than 100 mg/kg and an IC50 [3] of 319 nM.
For OC[C@H]1O[C@@H](n2cnc3c(NCC(c4ccc(Cl)cc4)c4ccc(Cl)cc4)ncnc32)[C@H](O)[C@@H]1O [Example 17, N^6-(2,2-Di(4-chlorophenyl)ethyl)adenosine], the IC50 [1] was 512 nM, the minimal effective dose [2, 4] was greater than 100 mg/kg and the IC50 [3] was 713 nM.
Work on Nc1nc(NCC(c2ccc(Cl)cc2)c2ccc(Cl)cc2)c2ncn([C@@H]3O[C@H](CO)[C@@H](O)[C@H]3O)c2n1 [Example 18] yielded an IC50 [1] of 1920 nM and an IC50 [3] of 2120 nM.
COc1ccc(C(CNc2ncnc3c2ncn3[C@@H]2O[C@H](CO)[C@@H](O)[C@H]2O)c2ccccc2)cc1 (stereo partly drawn) [Example 19, N^6-(2-(4-Methoxyphenyl)-2-phenylethyl)adenosine] gave an IC50 [1] of 21 nM, a minimal effective dose [2, 4] of 30 mg/kg and an IC50 [3] of 56 nM.
In the case of O=[N+]([O-])c1ccc(C(CNc2ncnc3c2ncn3[C@@H]2O[C@H](CO)[C@@H](O)[C@H]2O)c2ccc([N+](=O)[O-])cc2)cc1 [Example 20], the minimal effective dose ([2]; 1 h) is reported as greater than 100 mg/kg.
With CC(CNc1nc(N)nc2c1ncn2[C@@H]1O[C@H](CO)[C@@H](O)[C@H]1O)(c1ccccc1)c1ccccc1 [Example 21, N^6-(2,2-Diphenylpropyl)-2-aminoadenosine] the IC50 [1] was 285 nM, the minimal effective dose [2, 4] was greater than 100 mg/kg and the IC50 [3] was 470 nM.
Molecule OC[C@H]1O[C@@H](n2cnc3c(NCC(O)(c4ccccc4)c4ccccc4)ncnc32)[C@H](O)[C@@H]1O [Example 22, N^6-(2,2-Diphenyl-2-hydroxyethyl)adenosine] has an IC50 [1] of 12 nM, a minimal effective dose [2, 4] of 100 mg/kg and an IC50 [3] of 94 nM.
Molecule O=P(O)(O)OC[C@H]1O[C@@H](n2cnc3c(NCC(c4ccccc4)c4ccccc4)ncnc32)[C@H](O)[C@@H]1O [Example 28, N^6-(2,2-Diphenylethyl)adenosine-5'-phosphate] has a minimal effective dose [2, 4] greater than 30 mg/kg and an IC50 [3] of roughly 20 nM.
